The source of these data is patent US9242981B2, “Fused pyrazole derivatives as novel ERK inhibitors” (Merck Sharp & Dohme Corp., priority 2010, dated 2016).

Sequence of Mouse ERK2 protein (P63085 whole entry): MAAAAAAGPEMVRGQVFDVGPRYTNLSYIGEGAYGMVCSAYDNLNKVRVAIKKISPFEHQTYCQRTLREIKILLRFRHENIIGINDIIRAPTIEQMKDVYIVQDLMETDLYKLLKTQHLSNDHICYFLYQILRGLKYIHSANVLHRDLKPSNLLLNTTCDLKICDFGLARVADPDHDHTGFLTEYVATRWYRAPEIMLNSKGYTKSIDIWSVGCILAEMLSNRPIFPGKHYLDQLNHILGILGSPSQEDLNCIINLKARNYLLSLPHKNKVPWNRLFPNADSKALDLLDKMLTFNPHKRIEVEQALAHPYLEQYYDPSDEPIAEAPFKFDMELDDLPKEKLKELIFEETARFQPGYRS

The target of one assay is Mouse ERK2 protein (Mus musculus (Mouse), UniProt P63085). The assay can be described thus: Coupled MEK1/ERK2 IMAP assay or Active ERK2 IMAP assay. The format is biochemical. The settings on record: Table 1, class symbols, 30 μM ATP. On the procedure:
14 μl of kinase buffer (10 mM Tris.HCl pH 7.2, 10 mM MgCl2, 0.01% Tween-20, 1 mM DTT) containing 0.4 ng unphosphorylated Mouse ERK2 protein is added to each well of a black 384-well assay plate. […] DMSO concentration during initial incubation is 6.7%. […] DMSO concentration during ERK activation was 4%. After one hour, reactions are terminated by addition of 60 μl IMAP detections beads in binding buffer (Molecular Devices). Binding is allowed to equilibrate for 30 minutes before reading the plate on an LJL Analyst Fluorescence Polarization plate reader.
Activated ERK2 activity was also determined in the IMAP assay format using the procedure outlined above. […] Reactions proceeded for 30 minutes before termination by addition of […] IMAP detection beads in binding buffer. Plates were read as above after 30 minute binding equilibration.
In the case of `O=C(NC1CN(Cc2c(F)cccc2F)CCC1F)N1CCc2[nH]nc(-c3ccc4nccn4c3)c2C1` (mixture of isomers) [Compound 156, N-[cis/trans-1-[(2,6-difluorophenyl)methyl]-4-fluoro-3-piperidinyl]-1,4,6,7-tetrahydro-3-imidazo[1,2-a]pyridin-6-yl-5H-pyrazolo[4,3-c]pyridine-5-carboxamide], the IC50 – broadly, the concentration that inhibits the measured activity by half – was 0.101 to 1 µM. The same measure, in the same setting: as for `Cc1cc(-c2n[nH]c3c2CN(C(=O)NC2CN(Cc4c(F)cccc4F)CCC2F)CC3)ccn1` (mixture of isomers) [Compound 158, N-[cis/trans-1-[(2,6-difluorophenyl)methyl]-4-fluoro-3-piperidinyl]-1,4,6,7-tetrahydro-3-(2-methyl-4-pyridinyl)-5H-pyrazolo[4,3-c]pyridine-5-carboxamide], the figure is 0.101 to 1 µM; as for `CC1(C(=O)N[C@H]2CNC[C@@H]2c2ccccc2)CCc2[nH]nc(-c3ccncc3)c2C1` (mixture of isomers) [Compound 4, 4,5,6,7-tetrahydro-5-methyl-N-(trans-4-phenyl-3-pyrrolidinyl)-3-(4-pyridinyl)-1H-indazole-5-carboxamide (mixture of isomers)], 0.101 to 1 µM; as for `O=C(N[C@H]1CNC[C@@H]1c1ccccc1)[C@@H]1CCc2[nH]nc(-c3ccncc3)c2C1` (racemic) [Compound 12, 4,5,6,7-tetrahydro-N-(trans-4-phenyl-3-pyrrolidinyl)-3-(4-pyridinyl)-1H-indazole-5(R)-carboxamide], 0.101 to 1 µM. Same read-out and setting: as for `O=C(N[C@H]1CNC[C@@H]1c1ccccc1)[C@H]1CCc2[nH]nc(-c3ccncc3)c2C1` (racemic) [Compound 13, 4,5,6,7-tetrahydro-N-(trans-4-phenyl-3-pyrrolidinyl)-3-(4-pyridinyl)-1H-indazole-5(S)-carboxamide], the figure is 0.021 to 0.1 µM. The same measure, in the same setting: as for `O=C(N[C@H]1CNC[C@@H]1c1ccccc1)C1CCc2[nH]nc(-c3ccc4ncsc4c3)c2C1` (mixture of isomers) [Compound 43, 3-(6-benzothiazolyl)-4,5,6,7-tetrahydro-N-(trans-4-phenyl-3-pyrrolidinyl)-1H-indazole-5-carboxamide], the figure is 1 to 100 µM. Compound `O=C(N[C@H]1CNC[C@@H]1c1ccccc1)[C@H]1CCc2[nH]nc(-c3ccc4ncsc4c3)c2C1` (racemic) [Compound 44, 3-(6-benzothiazolyl)-4,5,6,7-tetrahydro-N-(trans-4-phenyl-3-pyrrolidinyl)-1H-indazole-5(S)-carboxamide] had a half-maximal inhibitory concentration (IC50) of 1 to 100 µM.

`Cc1ccccc1[C@@H]1CN(C)C[C@H]1NC(=O)N1CCc2[nH]nc(-c3ccc(F)cc3)c2C1` (racemic) [Compound 141, 3-(4-fluorophenyl)-1,4,6,7-tetrahydro-N-[trans-1-methyl-4-(2-methylphenyl)-3-pyrrolidinyl]-5H-pyrazolo[4,3-c]pyridine-5-carboxamide] displayed an IC50 below 0.02 µM. `O=C(N[C@@H]1CCC[C@H]1c1ccccc1)N1CCc2[nH]nc(-c3ccncc3)c2C1` (racemic) [Compound 143, 1,4,6,7-tetrahydro-N-[trans-2-phenylcyclopentyl]-3-(4-pyridinyl)-5H-pyrazolo[4,3-c]pyridine-5-carboxamide]: the IC50 was below 0.02 µM. On the same count and under the same terms, the value for `CN1C[C@@H](NC(=O)N2CCc3[nH]nc(-c4ccncc4)c3C2)[C@H](c2ccccc2C(F)(F)F)C1` (racemic) [Compound 149, 1,4,6,7-tetrahydro-N-[trans-1-methyl-4-[2-(trifluoromethyl)phenyl]-3-pyrrolidinyl]-3-(4-pyridinyl)-5H-pyrazolo[4,3-c]pyridine-5-carboxamide] was below 0.02 µM. The same measure, in the same setting: the value for `CN1C[C@@H](NC(=O)N2CCc3[nH]nc(-c4ccc(F)cc4)c3C2)[C@H](c2ccccc2C(F)(F)F)C1` (racemic) [Compound 151, 3-(4-fluorophenyl)-1,4,6,7-tetrahydro-N-[trans-1-methyl-4-[2-(trifluoromethyl)phenyl]-3-pyrrolidinyl]-5H-pyrazolo[4,3-c]pyridine-5-carboxamide] was below 0.02 µM; that for `CN1C[C@@H](NC(=O)N2CCc3[nH]nc(-c4ccc5c(c4)CCO5)c3C2)[C@H](c2ccccc2C(F)(F)F)C1` (racemic) [Compound 153, 3-(2,3-dihydro-5-benzofuranyl)-1,4,6,7-tetrahydro-N-[trans-1-methyl-4-[2-(trifluoromethyl)phenyl]-3-pyrrolidinyl]-5H-pyrazolo[4,3-c]pyridine-5-carboxamide] was below 0.02 µM. Turning to `CCn1cc(-c2n[nH]c3c2CN(C(=O)N[C@@H]2CN(C)C[C@H]2c2ccccc2C(F)(F)F)CC3)cn1` (racemic) [Compound 155, 3-(1-ethyl-1H-pyrazol-4-yl)-1,4,6,7-tetrahydro-N-[trans1-methyl-4-[2-(trifluoromethyl)phenyl]-3-pyrrolidinyl]-5H-pyrazolo[4,3-c]pyridine-5-carboxamide], the IC50 is below 0.02 µM. Still for that read-out and setting: the value for `Cc1ccc([C@@H]2CNC[C@H]2NC(=O)N2CCc3[nH]nc(-c4ccncc4)c3C2)cc1` (racemic) [Compound 157, 1,4,6,7-tetrahydro-N-[trans-4-(4-methylphenyl)-3-pyrrolidinyl]-3-(4-pyridinyl)-5H-pyrazolo[4,3-c]pyridine-5-carboxamide] was below 0.02 µM. On the same count and under the same terms, the value for `Cc1ccc(C2CN(C)CC2NC(=O)N2CCc3[nH]nc(-c4ccncc4)c3C2)cc1` (racemic) [Compound 159, 1,4,6,7-tetrahydro-N-[trans-1 methyl-4-(4-methylphenyl)-3-pyrrrolidinyl]-3-(4-pyridinyl)-5H-pyrazolo[4,3-c]pyridine-5-carboxamide] was below 0.02 µM. In the case of `CCN1C[C@@H](NC(=O)N2CCc3[nH]nc(-c4ccncc4)c3C2)[C@H](c2ccc(C)cc2)C1` (racemic) [Compound 161, N-[trans-1-ethyl-4-(4-methylphenyl)-3-pyrrolidinyl]-1,4,6,7-tetrahydro-3-(4-pyridinyl)-5H-pyrazolo[4,3-c]pyridine-5-carboxamide], the IC50 was below 0.02 µM.

`CN1C[C@@H](NC(=O)N2CCc3[nH]nc(-c4ccncc4)c3C2)[C@H](c2ccccc2-c2ccccc2)C1` (racemic) [Compound 163, N-[trans-4-[1,1′-biphenyl]-2-yl-1-methyl-3-pyrrolidinyl]-1,4,6,7-tetrahydro-3-(4-pyridinyl)-5H-pyrazolo[4,3-C]pyridine-5-carboxamide] displayed a concentration for half-maximal inhibition (IC50) below 0.02 µM.

`CC(C)(C)OC(=O)N1C[C@@H](NC(=O)N2CCc3[nH]nc(-c4ccncc4)c3C2)[C@H](c2cccc(-c3ccccc3)c2)C1` (racemic) [Compound 165, 1,1-dimethylethyl trans-3-[1,1′-biphenyl]-3-yl-4-[[[1,4,6,7-tetrahydro-3-(4-pyridinyl)-5H-pyrazolo[4,3-c]pyridin-5-yl]carbonyl]amino]-1-pyrrolidinecarboxylate] had an IC50 of 0.101 to 1 µM. For the compound `O=C(N[C@@H]1CNC[C@H]1c1cccc(-c2ccccc2)c1)N1CCc2[nH]nc(-c3ccncc3)c2C1` (racemic) [Compound 167, N-[trans-4-[1,1′-biphenyl]-3-yl-3-pyrrolidinyl]-1,4,6,7-tetrahydro-3-(4-pyridinyl)-5H-pyrazolo[4,3-c]pyridine-5-carboxamide], the concentration for half-maximal inhibition (IC50) is below 0.02 µM. On the same count and under the same terms, the value for `CN1C[C@@H](NC(=O)N2CCc3[nH]nc(-c4ccncc4)c3C2)[C@H](c2cccc(-c3ccccc3)c2)C1` (racemic) [Compound 169, N-[trans-4-[1,1′-biphenyl]-3-yl-1-methyl-3-pyrrolidinyl]-1,4,6,7-tetrahydro-3-(4-pyridinyl)-5H-pyrazolo[4,3-c]pyridine-5-carboxamide] was below 0.02 µM.

As to `O=C(N[C@@H]1CCCNC1)N1CCc2[nH]nc(-c3ccncc3)c2C1` (single isomer, unassigned) [Compound 171], the concentration for half-maximal inhibition (IC50) was in the range of 0.101 to 1 µM.

The compound `O=C(N[C@@H]1CCCN(Cc2ccccc2)C1)N1CCc2[nH]nc(-c3ccncc3)c2C1` (single isomer, unassigned) [Compound 175] returned an IC50 below 0.02 µM.

On to `O=C(NC1CC[C@H]2CC[C@@H]1N2Cc1c(F)cccc1F)N1CCc2[nH]nc(-c3ccc4nccn4c3)c2C1` (stereo in doubt) [Compound 182, N-[8-[(2,6-difluorophenyl)methyl]-8-azabicyclo[3.2.1]oct-2-yl]-1,4,6,7-tetrahydro-3-imidazo[1,2-a]pyridin-6-yl-5H-pyrazolo[4,3-c]pyridine-5-carboxamide], for which the IC50 was 0.101 to 1 µM. `CCn1cc(Cl)c(NC(=O)C2CCc3[nH]nc(-c4ccncc4)c3C2)n1` (stereo not drawn) [Compound 2, N-(4-chloro-1-ethyl-1H-pyrazol-3-yl)-4,5,6,7-tetrahydro-3-(4-pyridinyl)-1H-indazole-5-carboxamide] showed a half-maximal inhibitory concentration (IC50) of 1 to 100 µM.

Still in this assay, the particulars now being: Table 2, 30 μM ATP.
Turning to `O=C(N[C@H]1CNC[C@@H]1c1ccccc1)N1CCc2[nH]nc(-c3ccncc3)c2C1` (racemic) [Compound 37, 1,4,6,7-tetrahydro-N-(trans-4-phenyl-3-pyrrolidinyl)-3-(4-pyridinyl)-5H-pyrazolo[4,3-c]pyridine-5-carboxamide], the IC50 stood at 0.00116 µM. `Cc1ccccc1[C@@H]1CN(C)C[C@H]1NC(=O)N1CCc2[nH]nc(-c3ccc4c(c3)CCO4)c2C1` (racemic) [Compound 145, 3-(2,3-dihydro-5-benzofuranyl)-1,4,6,7-tetrahydro-N-[trans-1-methyl-4-(2-methylphenyl)-3-pyrrolidinyl]-5H-pyrazolo[4,3-c]pyridine-5-carboxamide] had an IC50 of 0.00152 µM.

Consider `CCn1cc(-c2n[nH]c3c2CN(C(=O)NC2CN(C)CC2c2ccccc2C)CC3)cn1` (racemic) [Compound 147, 3-(1-ethyl-1H-pyrazoI-4-yl)-1,4,6,7-tetrahydro-N-ttrans-1-methyl-4-(2-methylphenyl)-3-pyrrolidinyl]-5H-pyrazolo[4,3-c]pyridine-5-carboxamide], for which inhibition was half-maximal at 0.0019 µM (IC50).
